Results on 31 compounds are retold here after patent US20250115558A1, “PYRIDAZINE DERIVATIVES AND RELATED USES” (NodThera Limited, priority 2023, published 2025).

One test has as its system THP-1. Nature of the test: THP-1 IC50 assay. The test is classed as cell-based. As to conditions: Homo sapiens; THP-1 cells.
Test [1] has as its system IL-1β release upon NLRP3 activation in peripheral blood mononuclear cells (PBMC). Nature of the test: PBMC IC50 Determination Assay. It is filed as cell-based. As to conditions: Homo sapiens; inhibition of IL-1β release; LPS-primed PBMC stimulated with ATP or nigericin. As to the method:
The compounds of the present disclosure were tested for their inhibitory activity against IL-1β release upon NLRP3 activation in peripheral blood mononuclear cells (PBMC).
Protocol A. PBMC were isolated from buffy coats by density gradient centrifugation on Histopaque-1077 (Sigma, cat no. 10771). Isolated cells were seeded into the wells of a 96-well plate and incubated for 3 h with lipopolysaccharide (LPS). Following medium exchange, the compounds of the present disclosure were added (a single compound per well) and the cells were incubated for 30 min. Next, the cells were stimulated either with ATP (5 mM) or nigericin (10 μM) for 1 h and the cell culture media from the wells were collected for further analysis.
The release of IL-1β into the media was determined by a quantitative detection of IL-1β in the media using an IL-1β enzyme-linked immunosorbent assay (ELISA) Ready-SET-Go!, eBioscience cat. No. 88-7261-88. Briefly, in a first step, high affinity binding plates (Corning, Costar 9018 or NUNC Maxisorp Cat No. 44-2404) were coated overnight at 4° C. with specific capture antibody included in the kit (anti-human IL-1β ref. 14-7018-68). Subsequently, plates were blocked with blocking buffer for 1 h at room temperature (rt) and after washing with a buffer (PBS with 0.05% Tween-20) incubated with protein standard and culture media. After 2 h of incubation at rt, plates were washed and incubated with biotinylated detection antibody included in the kit (anti-human IL-1β Biotin ref. 33-7110-68) for 1 h at rt. Plates were washed and incubated with HRP-streptavidin for 30 min at rt and washed again. The signal was developed after addition of 3,3′,5,5′-tetramethylbenzidine-peroxidase (TMB) until colour appeared and the reaction was stopped by 2 M H2SO4. A microplate spectrophotometer (BioTek) was used to detect signals with 450 nm. The detection range of IL-1β ELISA was […].
Protocol B. PBMC were isolated from buffy coats by density gradient centrifugation on Histopaque-1077 (Sigma, cat no. 10771). Isolated cells were seeded into the wells (280,000 cells/well) of a 96-well plate and incubated for 3 h with lipopolysaccharide (LPS, 1 μg/mL diluted 1000× from a 1 mg/mL stock solution). The compounds of the present disclosure were added (a single compound per well) and the cells were incubated for 30 min. Next, the cells were stimulated with ATP (5 mM final concentration diluted 20× from a 100 mM stock solution) for 1 h and the cell culture media from the wells were collected for further analysis.
The release of IL-1β into the media was determined by quantitative detection of IL-1β in the media using HTRF®, CisBio cat. No. 62HIL1BPEH. Briefly, cell culture supernatant were dispensed directly into the assay plate containing antibodies labelled with the HTRF® donor and acceptor. A microplate spectrophotometer (BMG) was used to detect signals at 655 nm and 620 nm. The detection range of IL-1β HTRF® was 39-6500 μg/mL.

Counter-ions that a name gives are not always drawn.

`Cc1cc(C(F)(F)F)cc(O)c1-c1ccc(CNC2CCOCC2)nn1` [Compound 1, 3-Methyl-2-(6-(((tetrahydro-2H-pyran-4-yl)amino)methyl)pyridazin-3-yl)-5-(trifluoromethyl)phenol]: the IC50 (in the test on THP-1; in test [1]) was 500 to 1000 nM in each case. With `Cc1cc(C(F)(F)F)cc(O)c1-c1ccc(CNC2CC3(COC3)C2)nn1` [Compound 2, 2-(6-(((2-Oxaspiro[3.3]heptan-6-yl)amino)methyl)pyridazin-3-yl)-3-methyl-5-(trifluoromethyl)phenol], the IC50 (in the test on THP-1; in test [1]) was 500 to 1000 nM in each case. Consider `Cc1cc(C(F)(F)F)cc(O)c1-c1ccc(CNC2CC3(C2)CS(=O)(=O)C3)nn1` [Compound 3, 6-(((6-(2-Hydroxy-6-methyl-4-(trifluoromethyl)phenyl)pyridazin-3-yl)methyl)amino)-2-thiaspiro[3.3]heptane 2,2-dioxide], for which the IC50 (in the test on THP-1; in test [1]) was 500 to 1000 nM in each case. Regarding `Cc1cc(C(F)(F)F)cc(O)c1-c1ccc(CNC2CC3CCOC32)nn1` (stereo not drawn) [Compound 4, 2-(6-(((2-Oxabicyclo[3.2.0]heptan-7-yl)amino)methyl)pyridazin-3-yl)-3-methyl-5-(trifluoromethyl)phenol], the IC50 (in the test with THP-1; in test [1]) was 1000 to 3000 nM in each case.

Consider `Cc1cc(C(F)(F)F)cc(O)c1-c1ccc(CNC2(C)CCOCC2)nn1` [Compound 5, 3-Methyl-2-(6-(((4-methyltetrahydro-2H-pyran-4-yl)amino)methyl)pyridazin-3-yl)-5-(trifluoromethyl)phenol], for which the IC50 (in the test on THP-1; in test [1]) was 500 to 1000 nM throughout. Turning to `Cc1cc(C(F)(F)F)cc(O)c1-c1ccc(CNC2(C)CCOC2)nn1` (stereo not drawn) [Compound 6, 3-Methyl-2-(6-(((3-methyltetrahydrofuran-3-yl)amino)methyl)pyridazin-3-yl)-5-(trifluoromethyl)phenol hydrochloride], the IC50 (in the test on THP-1; in test [1]) was 500 to 1000 nM throughout. In the case of `Cc1cc(C(F)(F)F)cc(O)c1-c1ccc(CNC(=O)C2CCOCC2)nn1` [Compound 7, N-((6-(2-Hydroxy-6-methyl-4-(trifluoromethyl)phenyl)pyridazin-3-yl)methyl)tetrahydro-2H-pyran-4-carboxamide], the IC50 (in the test with THP-1; in test [1]) was 3000 to 10000 nM each time. In the case of `COCC(=O)NCc1ccc(-c2c(C)cc(C(F)(F)F)cc2O)nn1` [Compound 8, N-((6-(2-Hydroxy-6-methyl-4-(trifluoromethyl)phenyl)pyridazin-3-yl)methyl)-2-methoxyacetamide], the IC50 (in general, the concentration that inhibits the measured activity by half) with THP-1 lay within 3000 to 10000 nM; in test [1], 1000 to 3000 nM.

For `Cc1c(C(F)(F)F)ccc(-c2ccc(CNC3CCOCC3)nn2)c1O` [Compound 9, 2-Methyl-6-(6-(((tetrahydro-2H-pyran-4-yl)amino)methyl)pyridazin-3-yl)-3-(trifluoromethyl)phenol], the IC50 (with THP-1; in test [1]) was at least 10000 nM in each case. For the compound `Cc1cc(CNC2CCOCC2)nnc1-c1c(C)cc(C(F)(F)F)cc1O` [Compound 10, 3-Methyl-2-(4-methyl-6-(((tetrahydro-2H-pyran-4-yl)amino)methyl)pyridazin-3-yl)-5-(trifluoromethyl)phenol], the IC50 (in the test with THP-1; in test [1]) was 1000 to 3000 nM in each case. As to `Cc1cc(CNC2CCOCC2)nnc1-c1ccc(C(F)(F)F)cc1O` [Compound 11, 2-(4-Methyl-6-(((tetrahydro-2H-pyran-4-yl)amino)methyl)pyridazin-3-yl)-5-(trifluoromethyl)phenol], the IC50 (in the test on THP-1; in test [1]) was 1000 to 3000 nM each time. With `Cc1cc(Cl)cc(O)c1-c1ccc(CNC2CCOCC2)nn1` [Compound 12, 5-Chloro-3-methyl-2-(6-(((tetrahydro-2H-pyran-4-yl)amino)methyl)pyridazin-3-yl)phenol], the IC50 (in the test with THP-1; in test [1]) was below 500 nM in each case.

`Oc1cc(C(F)(F)F)ccc1-c1ccc(CNC2CCOCC2)nn1` [Compound 13, 2-(6-(((Tetrahydro-2H-pyran-4-yl)amino)methyl)pyridazin-3-yl)-5-(trifluoromethyl)phenol]: the IC50 (in the test on THP-1; in test [1]) was 3000 to 10000 nM in each case. For `Oc1cc(C(F)(F)F)cc(Cl)c1-c1ccc(CNC2CCOCC2)nn1` [Compound 14, 3-Chloro-2-(6-(((tetrahydro-2H-pyran-4-yl)amino)methyl)pyridazin-3-yl)-5-(trifluoromethyl)phenol], the IC50 (in the test with THP-1; in test [1]) was 1000 to 3000 nM each time.

Take `Cc1cc(-c2ccc(CNC3CCOCC3)nn2)c(O)cc1C(F)(F)F` [Compound 15, 4-Methyl-2-(6-(((tetrahydro-2H-pyran-4-yl)amino)methyl)pyridazin-3-yl)-5-(trifluoromethyl)phenol]: the IC50 (in the test on THP-1; in test [1]) was at least 10000 nM throughout.

Regarding `Oc1cc(Cl)ccc1-c1ccc(CNC2CCOCC2)nn1` [Compound 16, 5-Chloro-2-(6-(((tetrahydro-2H-pyran-4-yl)amino)methyl)pyridazin-3-yl)phenol], the IC50 in the test with THP-1 was 1000 to 3000 nM; in test [1], at least 10000 nM. On to `Cc1cc(C(F)(F)F)cc(O)c1-c1ccc(COC2CCOCC2)nn1` [Compound 17, 3-methyl-2-(6-(((tetrahydro-2H-pyran-4-yl)oxy)methyl)pyridazin-3-yl)-5-(trifluoromethyl)phenol], for which the IC50 was 1000 to 3000 nM in the test on THP-1 and 3000 to 10000 nM in test [1]. The like results for `Cc1cc(C(F)(F)F)cc(O)c1-c1ccc(COC2CCCNC2)nn1` (stereo not drawn) [Compound 18, 3-Methyl-2-(6-((piperidin-3-yloxy)methyl)pyridazin-3-yl)-5-(trifluoromethyl)phenol] were, in that order, 1000 to 3000 nM and 500 to 1000 nM.

`Cc1cc(C(F)(F)F)cc(O)c1-c1ccc(COC2CCNCC2)nn1` [Compound 19, 3-Methyl-2-(6-((piperidin-4-yloxy)methyl)pyridazin-3-yl)-5-(trifluoromethyl)phenol]: the IC50 (in the test with THP-1; in test [1]) was 1000 to 3000 nM each time. As to `Cc1cc(C(F)(F)F)cc(O)c1-c1ccc(CN)nn1` [Compound 20, 2-[6-(aminomethyl)pyridazin-3-yl]-3-methyl-5-(trifluoromethyl)phenol], the IC50 in the test on THP-1 lay within 3000 to 10000 nM; in test [1] it was 1000 to 3000 nM.

`Cc1cc(C(F)(F)F)cc(O)c1-c1ccc(CNC2COC2)nn1` [Compound 21]: the IC50 (in the test on THP-1; in test [1]) was 500 to 1000 nM in each case.

Turning to `Cc1cc(C(F)(F)F)cc(O)c1-c1ccc(CNC2CCCN(C)C2)nn1` (stereo not drawn) [Compound 22], the IC50 (with THP-1; in test [1]) was 1000 to 3000 nM each time.

Consider `Cc1cc(C(F)(F)F)cc(O)c1-c1ccc(CN2C(=N)N(C)CC2=O)nn1` [Compound 23], for which the IC50 (with THP-1; in test [1]) was 3000 to 10000 nM throughout. For `CC(=O)N1CCC(NCc2ccc(-c3c(C)cc(C(F)(F)F)cc3O)nn2)C1` (stereo not drawn) [Compound 24], the IC50 in the test with THP-1 is 500 to 1000 nM; in test [1], below 500 nM. For `Cc1cc(C(F)(F)F)cc(O)c1-c1ccc(Cn2ccc(=N)cc2)nn1` [Compound 25], the IC50 (with THP-1; in test [1]) was 3000 to 10000 nM in each case.

As to `Cc1cc(C(F)(F)F)cc(O)c1-c1ccc(CNc2cncnc2)nn1` [Compound 26], the IC50 is 1000 to 3000 nM with THP-1 and 500 to 1000 nM in test [1]. Take `Cc1cc(C(F)(F)F)cc(O)c1-c1ccc(CNc2ccnn2C)nn1` [Compound 27]: the IC50 in the test with THP-1 lay in the range of 1000 to 3000 nM; in test [1] it was 500 to 1000 nM. Taken in the same sequence, the figures for `Cc1cc(C(F)(F)F)cc(O)c1-c1ccc(CNc2cscn2)nn1` [Compound 28] were 500 to 1000 nM and 500 to 1000 nM. Consider `Cc1cc(Br)cc(O)c1-c1ccc(CNC2CCOCC2)nn1` [Compound 29, 5-Bromo-3-methyl-2-(6-(((tetrahydro-2H-pyran-4-yl)amino)methyl)pyridazin-3-yl)phenol], for which the IC50 (in the test on THP-1; in test [1]) was below 500 nM each time. For the compound `Cc1cc(C(F)(F)F)cc(O)c1-c1ccc(CNC2CC(F)(F)C2)nn1` [Compound 143], in test [1], the IC50 is below 500 nM. In the test with THP-1, `Cc1cnc(NCc2ccc(-c3c(C)cc(C(F)(F)F)cc3O)nn2)o1` [Compound 148] showed an IC50 of 1000 to 3000 nM.
